Here are results for 1 compound from patent US20250387329A1 (priority 2022, published 2025).

Converted amounts (≈) assume the structure as drawn.

In general, solubility refers to how much of the substance goes into solution per volume. Broadly, the thermodynamic solubility is solubility found after equilibrating the solid with the medium.

One series concerns human renal cancer cells. The settings on record: cells derived from a primary tumor or from metastatic tumor tissue; disclosed in WO 2010/040750; cited from earlier work.
Series [1] in a line: Solubility study with different buffer concentrations at pH 7.4. To be noted: phosphate buffer, pH 7.4, aqueous buffer, thermodynamic from solid; for solubility thermodynamic at 24 h: Concentration of Orellanine, pH adjusted to 7.4 after 3 hours, stirred 24 hours at room temperature. The procedure:
Solubility Study with Different Buffer Concentrations at pH 7.4
The impact of buffer concentration was assessed. Three buffers were used: • Phosphate buffer pH 7.4 at 25 mM-prepared from 0.95 ml of NaH2PO4 (0.1M) and 4.05 ml of Na2HPO4 (0.1M), adjusted to 20 ml with WFI. • Phosphate buffer pH 7.4 at 50 mM-prepared from 19 ml of NaH2PO4 (0.1M) and 81 ml of Na2HPO4 (0.1M), adjusted to 200 ml with WFI. • Phosphate buffer pH 7.4 at 100 mM-prepared from 38 ml NaH2PO4 (0.1M) and 162 ml of Na2HPO4 (0.1M), adjusted to 200 ml with WFI.
(§1) The pH of each buffer was adjusted with a pH meter and sodium hydroxide or hydrochloric acid at 0.2M.
(§2) The suspension was then stirred at 400 rpm for 24 hours at room temperature. Each suspension was filtered through a 0.2 μm PVDF syringe filter.

Series [2] is described as follows: Formulation adjustment: solubility in selected buffers plus 0.70% NaCl, pH adjusted twice. The settings on record: pH 7.4, aqueous buffer, thermodynamic from solid. The procedure:
Two buffers were selected: NaH2PO4—Na2HPO4 pH 7.4 and Citrate-Na2HPO4 PH 7.4 at 50 mM, each with addition of 0.70% sodium chloride. Adding 0.70% sodium chloride provides a solution close to isotonicity.
Formulations were prepared by weighing 40 mg of Orellanine into a 5 ml vial, adding 2 ml of buffer, stirring the suspension for 1 hour, adjusting the pH to 7.4 with sodium hydroxide (0.2M), stirring the suspension at 400 rpm for 24 hours at room temperature, and adjusting the pH to 7.4 with sodium hydroxide (0.2M). Each suspension was filtered through a 0.2 μm PVDF syringe filter.

A short description of series [3]: Solubility study with different ionic strengths at pH 7.4. To be noted: phosphate buffer with sodium chloride, pH 7.4, aqueous buffer, thermodynamic from solid, Concentration of Orellanine, stirred 24 hours at room temperature. As to the method: Solubility Study with Different Ionic Strengths at pH 7.4
The ionic strength of the NaH2PO4—Na2HPO4 buffer was adjusted by adding sodium chloride. The ionic strength of the NaH2PO4—Na2HPO4 buffer at 50 mM was estimated at around 130 mM. The proportion of sodium chloride in added to the buffers was 0.41%, 0.98%, and 2.15%.
as §2

Series [4] in a line: Solubility study with different buffer salts at pH 7.4. The settings on record: for solubility thermodynamic at 24 h: pH 7.4, aqueous buffer, thermodynamic from solid. The procedure:
Solubility Study with Different Buffer Salts at pH 7.4
Four buffers at pH 7.4 and 50 mM were assessed: • Phosphate buffer pH 7.4 at 50 mM-prepared from 19 ml of NaH2PO4 (0.1M) and 81 ml of Na2HPO4 (0.1M), adjusted to 200 ml with WFI. • Phosphate buffer pH 7.4 at 50 mM-prepared from 28.1 ml of KH2PO4 (0.2M) and 21.9 ml of NaOH (0.2M) adjusted to 200 ml with WFI. • Tris-HCl buffer pH 7.4 at 50 mM-prepared from 54.7 ml of tris(hydroxymethyl)aminomethane (0.1M) and 45.3 ml of hydrochloric acid (0.1M), adjusted to 200 ml with WFI. • Citrate phosphate buffer pH 7.4 at 50 mM-prepared from 2.4 ml of citric acid monohydrate (0.2M) and 47.6 ml of Na2HPO4 (0.2M), adjusted to 200 ml with WFI.
as §1, §2

A short description of series [5]: Solubility study with buffer (pH dependent solubility testing). To be noted: thermodynamic from solid. As to the method:
Solubility Study with Buffer (pH Dependent Solubility Testing)
A phase solubility study was performed for different buffers to analyse the effect of pH on the solubility of Orellanine. Four buffers were tested: • Acetate buffer pH 4.5 at 50 mM-prepared from 1.81 g sodium acetate and 14 ml of acetic acid (2N), adjusted up to 11 with water for injection (WFI). • Phosphate buffer pH 5.8 at 50 mM-prepared from 92 ml of NaH2PO4 and 8 ml of Na2HPO4, adjusted to 200 ml with WFI. • Phosphate buffer pH 6.8 at 50 mM-prepared from 51 ml of NaH2PO4 and 49 ml of Na2HPO4, adjusted to 200 ml with WFI. • Phosphate buffer pH 7.4 at 50 mM-prepared from 19 ml of NaH2PO4 and 81 ml of Na2HPO4, adjusted to 200 ml with WFI.
as §1
Each suspension was centrifuged at 5300 rpm for 15 minutes. The supernatant was filtered with a 0.45 μm nylon filter.

Take `[O-][n+]1ccc(O)c(O)c1-c1c(O)c(O)cc[n+]1[O-]` [Orellanine]: in the series on human renal cancer cells, the “Killing of human renal cancer cells” value is recorded as “killed them with great efficiency”. Further, the solubility at 24 h is 3700 to 4900 µg/mL (≈ 14.7 to 19.4 mM) in series [1] and greater than 10000 µg/mL in series [2]. The solubility (thermodynamic) at 24 h in series [1] (NaH2PO4—Na2HPO4 pH 7.4 25 mM, final pH 7.29, 92 mOsm) turned out to be 3680 µg/mL (≈ 14.6 mM); in series [1] (NaH2PO4—Na2HPO4 pH 7.4 50 mM, final pH 7.33, 150 mOsm), 4880 µg/mL (≈ 19.4 mM); in series [1] (NaH2PO4—Na2HPO4 pH 7.4 100 mM, final pH 7.30, 242 mOsm) it was 4910 µg/mL (≈ 19.5 mM); in series [2] (citrate phosphate buffer with sodium chloride), 10500 µg/mL; in series [2] (phosphate buffer with sodium chloride), 11100 µg/mL; in series [3] (NaH2PO4—Na2HPO4 pH 7.4 at 50 mM plus 0.41% NaCl, final pH 7.26, 205 mOsm), 5310 µg/mL. The solubility (thermodynamic) at 24 h in series [3] (NaH2PO4—Na2HPO4 pH 7.4 at 50 mM plus 0.98% NaCl, final pH 7.19, 328 mOsm) is 5900 µg/mL; in series [3] (NaH2PO4—Na2HPO4 pH 7.4 at 50 mM plus 2.15% NaCl, final pH 7.30, 595 mOsm), 6430 µg/mL; in series [4] (Tris-HCl buffer), 4590 µg/mL; in series [4] (citrate phosphate buffer), 5440 µg/mL; in series [4] (phosphate buffer), 4560 µg/mL; in series [5] (acetate buffer, pH 4.5, aqueous buffer) it was 2.4 µg/mL (≈ 0.00952 mM). In addition, the solubility (thermodynamic) at 24 h in series [5] (phosphate buffer, pH 5.8, aqueous buffer) turned out to be 29.9 µg/mL (≈ 0.119 mM); in series [5] (phosphate buffer, pH 6.8, aqueous buffer), 622 µg/mL (≈ 2.47 mM); in series [5] (phosphate buffer, pH 7.4, aqueous buffer) it was 1720 µg/mL (≈ 6.8 mM). In addition, the “Concentration of Orellanine” value in series [4] (NaH2PO4—Na2HPO4 pH 7.4, 50 mM, stirred 24 hours at room temperature, final pH 7.33, 150 mOsm) is 4880 µg/mL.
